This note sets out measurements from ChEMBL document CHEMBL4483862, “Open-source discovery of chemical leads for next-generation chemoprotective antimalarials” (2018).

SMILES strings stand for the structures.

The subject of this assay is Plasmodium berghei. As to the kind of experiment: Luciferase/luciferin-expressing antifolate-resistant parasites were used to infect a culture of HepG2 cells that were pre-incubated with compounds. Infected hepatocytes emit light due to the luciferase reaction. Assay results are presented as the percent inhibition of light emission compared to control. […]. The assay is classed as functional. The note with it: sporozoite; for IC90: read-out: LUCIFERASE INFECTION ASSAY - IC90.

Setting [1] is: read-out: LUCIFERASE INFECTION ASSAY - IC50.

Take `Cc1cccc(C(=O)N[C@H](C(=O)Nc2nc(-c3ccccn3)cs2)C(C)C)c1`: the IC90 worked out at 3.94 µM. The IC50 (HEPG2TOX_HILL_SLOPE 1.86, HEPG2TOX_R_SQUARED 0.615, PBLUC_HILL_SLOPE 3.31, PBLUC_R_SQUARED 0.556, read-out: LUCIFERASE INFECTION ASSAY - IC50) is 2.03 µM.

As to `OCCCNc1nn2c(-c3cccc(Cl)c3)cnc2s1`, the IC90 is > 10.7 µM. Besides, the IC50 (HEPG2TOX_HILL_SLOPE 8.79, HEPG2TOX_R_SQUARED 0.819, PBLUC_HILL_SLOPE 13.4, PBLUC_R_SQUARED 0.184, read-out: LUCIFERASE INFECTION ASSAY - IC50) amounted to 9.8 µM.

For `CCCc1cc(NCc2cccnc2)n2nc(C)c(-c3ccccc3)c2n1`, the IC90 is > 9.23 µM. Further, the IC50 (PBLUC_HILL_SLOPE 1.13, PBLUC_R_SQUARED 0.661, read-out: LUCIFERASE INFECTION ASSAY - IC50) was found to be 3.19 µM.

Take `O=c1cc(N2CCN(CCOc3ccccc3Cl)CC2)nc2ccccn12`: the IC90 is > 10 µM. In addition, under setting [1], the IC50 was > 10 µM.

For the molecule `CCOC(=O)c1sc(NC(=O)c2ccc(C)s2)cc1C`, the IC90 is > 10 µM. In addition, under setting [1], the IC50 was > 10 µM.

In the case of `O=C(Cc1ccccc1)NCC(=O)N1CCc2nc(NCc3cccc(Oc4ccccc4)c3)ncc2C1`, the IC90 was > 6.5 µM. The IC50 under setting [1] was > 6.5 µM.

On to `N=C1NC(=O)C(C2(O)C(=O)N(Cc3ccccc3)c3ccc(Cl)cc32)S1` (stereo not drawn), for which the IC90 was > 8.51 µM. For the same molecule, the IC50 (PBLUC_HILL_SLOPE 0.13, PBLUC_R_SQUARED 0.0166, read-out: LUCIFERASE INFECTION ASSAY - IC50) was > 8.51 µM.

For the molecule `CCn1nnc2cc(C(=O)Nc3cccc(Cl)c3N3CCOCC3)ccc21`, the IC90 is > 10 µM. Moreover, the IC50 (HEPG2TOX_HILL_SLOPE 5.65, HEPG2TOX_R_SQUARED 0.159, PBLUC_HILL_SLOPE 1.72, PBLUC_R_SQUARED 0.0547, read-out: LUCIFERASE INFECTION ASSAY - IC50) turned out to be 5.31 µM.

On to `CCN(CC)c1ccc(NC(=O)CCc2ccccc2)cc1C`, for which the IC90 was 6.81 µM. The IC50 (HEPG2TOX_HILL_SLOPE 3.47, HEPG2TOX_R_SQUARED 0.947, PBLUC_HILL_SLOPE 2.46, PBLUC_R_SQUARED 0.836, read-out: LUCIFERASE INFECTION ASSAY - IC50) came out at 2.79 µM.

As for `O=C(NCCCn1cnc2ccccc21)c1[nH]nc2ccccc12`, the IC90 was > 10 µM. The IC50 (HEPG2TOX_HILL_SLOPE 14.9, HEPG2TOX_R_SQUARED 0.872, PBLUC_HILL_SLOPE 4.15, PBLUC_R_SQUARED 0.429, read-out: LUCIFERASE INFECTION ASSAY - IC50) is 6.32 µM.

For `CCc1cccc2c(/C=C(\C#N)C(=O)C(C)(C)C)c[nH]c12`, the IC90 is > 10 µM. Also, the IC50 (PBLUC_HILL_SLOPE 0.872, PBLUC_R_SQUARED 0.606, read-out: LUCIFERASE INFECTION ASSAY - IC50) was found to be 6.24 µM.

`c1ccc(CCCNc2nnnn2-c2ccccc2)cc1`: the IC90 was > 10 µM. Besides, the IC50 (PBLUC_HILL_SLOPE 1.25, PBLUC_R_SQUARED 0.199, read-out: LUCIFERASE INFECTION ASSAY - IC50) came to 6.08 µM.

As for `Cc1ccc(C(=O)OCCOc2ccccc2)cc1NC(=O)c1ccco1`, the IC90 was 1.22 µM. In addition, the IC50 (PBLUC_HILL_SLOPE 15.6, PBLUC_R_SQUARED 0.272, read-out: LUCIFERASE INFECTION ASSAY - IC50) was found to be 1.06 µM.

With `O=C1S/C(=C\c2ccccc2)C(=O)N1CCn1cnnn1`, the IC90 is > 10 µM. Also, the IC50 under setting [1] was > 10 µM.

In the case of `c1ccc(Oc2cccc(-c3ccc4ncc(-c5ccoc5)n4n3)c2)cc1`, the IC90 is > 10 µM. In addition, the IC50 under setting [1] was > 10 µM.

For the molecule `CCOC(=O)c1c(C)[nH]c(C(=O)C(C)OC(=O)CN2C(=O)C3CC=CCC3C2=O)c1C` (stereo not drawn), the IC90 was > 10 µM. For the setting “HEPG2TOX_HILL_SLOPE 1.33, HEPG2TOX_R_SQUARED 0.914, read-out: LUCIFERASE INFECTION ASSAY - IC50”, the IC50 was > 10 µM.

Consider `O=C(c1ccccc1)c1ccc(OCC(O)CNC2CCCCCCC2)cc1` (stereo not drawn), for which the IC90 is > 10 µM. Moreover, the IC50 (PBLUC_HILL_SLOPE 1.94, PBLUC_R_SQUARED 0.684, read-out: LUCIFERASE INFECTION ASSAY - IC50) stood at 6.28 µM.

With `Cc1ccc(S(=O)(=O)N2CCN(CC(=O)N3N=C4/C(=C/c5cccs5)CCCC4C3c3cccs3)CC2)cc1` (stereo not drawn), the IC90 is 4.41 µM. The IC50 (HEPG2TOX_HILL_SLOPE 6.4, HEPG2TOX_R_SQUARED 0.688, PBLUC_HILL_SLOPE 11.3, PBLUC_R_SQUARED 0.553, read-out: LUCIFERASE INFECTION ASSAY - IC50) was found to be 3.64 µM.

Consider `CN(CCO)C(=O)NCCC(c1ccccc1)c1ccccc1`, for which the IC90 was > 10 µM. Under setting [1], the IC50 is > 10 µM.

For `Cc1nccn1Cc1cccc(CNS(=O)(=O)c2ccc3ccccc3c2)c1`, the 90% effect concentration (IC90) was > 10 µM. Also, the IC50 under setting [1] was > 10 µM.

In the case of `N#Cc1cccc(/C=C/C(=O)c2ccc(S(=O)(=O)N3CCCC3)cc2)c1`, the IC90 was > 10 µM. Also, under setting [1], the IC50 is > 10 µM.

`COc1ccc(Nc2ccn3ncc(-c4ccc(N(C)C)cc4)c3n2)cn1`: the IC90 came out at 5.31 µM. Moreover, where the note is “HEPG2TOX_HILL_SLOPE 7.66, HEPG2TOX_R_SQUARED 0.327, PBLUC_HILL_SLOPE 65.7, PBLUC_R_SQUARED 0.275, read-out: LUCIFERASE INFECTION ASSAY - IC50”, the IC50 is 5.14 µM.

As to `Cc1ccc(Nc2nc(COC(=O)c3ccccc3Sc3ccc(C(F)(F)F)cc3[N+](=O)[O-])cs2)cc1`, the IC90 was > 10 µM. Besides, the IC50 under setting [1] is > 10 µM.

`CC(C)(C)C1CCc2nc3ccccc3c(C(=O)OCC(=O)c3ccc(Cl)s3)c2C1` (stereo not drawn): the IC90 was > 10 µM. Moreover, the IC50 under setting [1] was > 10 µM.

Regarding `CS(=O)(=O)c1ccc2nc(NC(=O)c3cc(-c4ccccc4)nn3-c3ccccc3)sc2c1`, the IC90 was > 10 µM. The IC50 (PBLUC_HILL_SLOPE 1.63, PBLUC_R_SQUARED 0.444, read-out: LUCIFERASE INFECTION ASSAY - IC50) came out at 4.67 µM.

As for `Cc1ccc2c(c1)/C(=N/Nc1nc3ccccc3s1)C(=O)N2`, the IC90 turned out to be 4.93 µM. Also, where the note is “HEPG2TOX_HILL_SLOPE 7.15, HEPG2TOX_R_SQUARED 0.815, PBLUC_HILL_SLOPE 8.39, PBLUC_R_SQUARED 0.507, read-out: LUCIFERASE INFECTION ASSAY - IC50”, the IC50 came to 3.79 µM.

As for `CCc1ccc2nc(NC(=O)c3cnccn3)sc2c1`, the 90% effect concentration (IC90) was found to be 9.66 µM. The IC50 (HEPG2TOX_HILL_SLOPE 14.5, HEPG2TOX_R_SQUARED 0.913, PBLUC_HILL_SLOPE 21.7, PBLUC_R_SQUARED 0.176, read-out: LUCIFERASE INFECTION ASSAY - IC50) turned out to be 8.73 µM.

Turning to `O=C(Nc1ccc(Oc2cccc3cccnc23)cc1)c1cccs1`, the IC90 is > 9.53 µM. For the same molecule, under setting [1], the IC50 was > 9.53 µM.

Take `CCOC(=O)c1c(C)nn(-c2ccc(NC(=O)Nc3ccc(Cl)cc3)cc2)c1C`: the IC90 is > 7.99 µM. Also, under setting [1], the IC50 is > 7.99 µM.

Turning to `COc1ccccc1C(=O)Nc1ccc2c(c1)nc(CCN1CCCC1)n2C`, the IC90 is > 8.72 µM. Where the note is “PBLUC_HILL_SLOPE 41.2, PBLUC_R_SQUARED 0.16, read-out: LUCIFERASE INFECTION ASSAY - IC50”, the IC50 stood at 8.38 µM.

Regarding `CC(C)NC(=O)c1c(NC(=O)c2cc(F)c(Cl)cc2F)nc2ccccn12`, the IC90 is 1.42 µM. Besides, the IC50 (HEPG2TOX_HILL_SLOPE 0.89, HEPG2TOX_R_SQUARED 0.947, PBLUC_HILL_SLOPE 3.47, PBLUC_R_SQUARED 0.71, read-out: LUCIFERASE INFECTION ASSAY - IC50) was determined as 0.755 µM.

For `O=C1c2ccccc2C(=O)c2sccc21` [THIOPHENONAPHTHOQUINONE], the IC90 was > 15.4 µM. Moreover, the IC50 (PBLUC_HILL_SLOPE 0.947, PBLUC_R_SQUARED 0.583, read-out: LUCIFERASE INFECTION ASSAY - IC50) came out at 2.81 µM.

In the case of `Cc1[nH]c(-c2ccccn2)nc(=O)c1CC(=O)NC1CCCCCCC1`, the IC90 amounted to 1.71 µM. Besides, the IC50 (PBLUC_HILL_SLOPE 61.7, PBLUC_R_SQUARED 0.378, read-out: LUCIFERASE INFECTION ASSAY - IC50) is 1.65 µM.

`COc1ccccc1N1C(=O)C=CC1=O`: the IC90 is > 16.2 µM. Also, the IC50 under setting [1] is > 16.2 µM.

As for `CN(C)CCCNC(=O)c1ccc(-c2cn3c(-c4cccc(Cl)c4)cnc3cn2)cc1`, the IC90 was > 7.6 µM. Moreover, under setting [1], the IC50 was > 7.6 µM.

With `O=C(Nc1ccccc1)N1CCc2nc(NCc3cccc(Oc4ccccc4)c3)ncc2C1`, the IC90 is 3.15 µM. For the same molecule, for the setting “HEPG2TOX_HILL_SLOPE 4.26, HEPG2TOX_R_SQUARED 0.801, PBLUC_HILL_SLOPE 11.5, PBLUC_R_SQUARED 0.365, read-out: LUCIFERASE INFECTION ASSAY - IC50”, the IC50 turned out to be 2.6 µM.

In the case of `COC(=O)c1occc1/C=C/C(=O)c1ccc2c(c1)CCC2`, the IC90 was > 10 µM. Besides, under setting [1], the IC50 was > 10 µM.

Turning to `Cc1cccc(Oc2ccc(NC(=O)c3cccc(S(=O)(=O)N(C)C4CCCCC4)c3)cc2)c1`, the IC90 is 9.44 µM. Also, under “FFLUC_HILL_SLOPE 23.3, FFLUC_R_SQUARED 0.81, HEPG2TOX_HILL_SLOPE 1.26, HEPG2TOX_R_SQUARED 0.904, PBLUC_HILL_SLOPE 3.5, PBLUC_R_SQUARED 0.0916, read-out: LUCIFERASE INFECTION ASSAY - IC50”, the IC50 was found to be 5.04 µM.

For `O=[N+]([O-])c1ccc(Oc2c(Cl)cc(S(=O)(=O)Nc3cccc(C(F)(F)F)c3)cc2Cl)c(Cl)c1`, the IC90 is > 6.09 µM. Besides, the IC50 (FFLUC_HILL_SLOPE 1.65, FFLUC_R_SQUARED 0.655, read-out: LUCIFERASE INFECTION ASSAY - IC50) is > 6.09 µM.
